The text below walks through data of patent US7244713B2, “Nucleoside compounds for treating viral infections” (Genelabs Technologies, Inc., priority 2003, dated 2007).

Data set [1] deals with HCV replicon in ET (Huh-lucubineo-ET) cell line. Put plainly: Replicon assay (luciferase, ET cells). It is filed as cell-based, hepatitis C virus. The protocol:
A cell line, ET (Huh-lucubineo-ET) is used for screening of compounds of the present invention for HCV RNA dependent RNA polymerase. The ET cell line is stably transfected with RNA transcripts harboring a I389luc-ubi-neo/NS3-3′/ET; replicon with firefly luciferase-ubiquitin-neomycin phosphotransferase fusion protein and EMCV-IRES driven NS3-5B polyprotein containing the cell culture adaptive mutations (E1202G; T1280I; K1846T) (Krieger at al, 2001 and unpublished). The ET cells are grown in DMEM, supplemented with 10% fetal calf serum, 2 mM Glutamine, Penicillin (100 IU/mL)/Streptomycin (100 μg/mL), 1× nonessential amino acids, and 250 μg/mL G418 (“Geneticin”). They are all available through Life Technologies (Bethesda, Md.). The cells are plated at 0.5-1.0×10^4 cells/well in the 96 well plates and incubated for 24 hrs before adding nucleoside analogs. Then the compounds were added to the cells to achieve a final concentration of 50 or 100 μM, or whatever concentration is desired. For these determinations, 6 dilutions of each compound are used. Compounds are typically diluted 3 fold to span a concentration range of 250 fold. Luciferase activity will be measured 48-72 hours later by adding a lysis buffer and the substrate (Catalog number Glo-lysis buffer E2661 and Bright-Glo leuciferase system E2620 Promega, Madison, Wis.). Cells should not be too confluent during the assay. Percent inhibition of replication will be plotted relative to no compound control. Under the same condition, cytotoxicity of the compounds will be determined using cell proliferation reagent, WST-1 (Roche, Germany). IC50 and TC50 values are calculated by fitting % inhibition at each concentration to the following equation, where b is Hill's coefficient: % inhibition=100%/[(IC50/[I])^b+1]

A further data set concerns the target T1, HCV-NS5b (Hepatitis C virus genotype 1b, UniProt Q9WMX2).
T1 construct: The cloned fragment is missing the C terminus 21 amino acid residues; (His)6 (C); made in house; host or cells: XL-1 cells (E. coli, IPTG-inducible plasmid)
Put plainly: HCV-NS5b enzyme assay. It is filed as biochemical. The source says: The coding sequence of NS5b protein is cloned by PCR from pFKI389luc/NS3-3′/ET as described by Lohmann, V., et al. (1999) Science 285, 110-113 using the following primers: […]
The cloned fragment is missing the C terminus 21 amino acid residues. The cloned fragment is inserted into an IPTG-inducible expression plasmid that provides an epitope tag (His)6 at the carboxy terminus of the protein.
The recombinant enzyme is expressed in XL-1 cells and after induction of expression, the protein is purified using affinity chromatography on a nickel-NTA column. Storage condition is 10 mM Tris-HCl pH 7.5, 50 mM NaCl, 0.1 mM EDTA, 1 mM DTT, 20% glycerol at −20° C.
The polymerase activity is assayed by measuring incorporation of radiolabeled UTP into a RNA product using a biotinylated, heteropolymeric template, which includes a portion of the HCV genome. Typically, the assay mixture (50 μL) contains 10 mM Tris-HCl (pH 7.5), 5 mM MgCl2, 0.2 mM EDTA, 10 mM KCl, 1 unit/μL RNAsin, 1 mM DTT, 10 μM each of NTP, including [^3H]-UTP, and 10 ng/μL heteropolymeric template. Test compounds are initially dissolved in 100% DMSO and further diluted in aqueous buffer containing 5% DMSO. Typically, compounds are tested at concentrations between 1 nM and 100 μM. Reactions are started with addition of enzyme and allowed to continue at 37° C. for 2 hours. Reactions are quenched with 8 μL of 100 mM EDTA and reaction mixtures (30 μL) are transferred to streptavidin-coated scintillation proximity microtiter plates (FlashPlates) and incubated at 4° C. overnight. Incorporation of radioactivity is determined by scintillation counting.

The next data set concerns HCV. As to conditions: treatment of HCV, long term efficacy; cited from earlier work.
The conditions of data set [2]: currently recommended doses; cited from earlier work.

The term inhibition denotes the drop in the measured response relative to a control, in per cent. For `CCOC(C#Cc1cn(C2OC(CO)C(O)[C@@]2(C)O)c2ncnc(N)c12)OCC` (stereo in doubt) [Cmpd 106, 7-(2′-C-methyl-β-D-ribofuranosyl)-4-amino-5-[(3,3-diethoxy)proparg-1-yl]-pyrrolo[2,3-d]pyrimidine], in data set [1] (Hepatitis C virus, 50 μM), the inhibition at 50 µM worked out at 95.5%. In data set [1] (Hepatitis C virus, 100 μM), this molecule displayed an inhibition at 100 µM of 95.6%. For `C[C@@]1(O)C(O)C(CO)OC1n1cc(B(O)O)c2c(N)ncnc21` (stereo in doubt) [Cmpd 181, 7-(2′-C-methyl-β-D-ribofuranosyl)-4-amino-5-(boronic acid)-pyrrolo[2,3-d]pyrimidine], in that order: 98.2% and 98.1%.

As to `C[C@@]1(O)[C@H](O)[C@@H](COP(=O)(O)O)O[C@H]1n1cc(C=O)c2c(N)ncnc21` [Cmpd 166, 7-(2′-C-methyl-5′-phospho-β-D-ribofuranosyl)-4-amino-5-(formyl)-pyrrolo[2,3-d]pyrimidine], in data set [1] (Hepatitis C virus, 16.7 μM, second test), the inhibition at 16.7 µM worked out at 96.6%. Besides, the inhibition at 50 µM in data set [1] (Hepatitis C virus, 50 μM) was determined as 97%. Consider `C[C@@]1(O)[C@H](O)[C@@H](COP(=O)(O)OP(=O)(O)OP(=O)(O)O)O[C@H]1n1cc(C#Cc2ccccc2)c2c(N)ncnc21` [Cmpd 154, 7-(2′-C-methyl-5′-triphospho-β-D-ribofuranosyl)-4-amino-5-(2-phenylethyn-1-yl)-pyrrolo[2,3-d]pyrimidine], for which the inhibition at 16.7 µM on HCV-NS5b (16.7 μM, read-out: Enzyme, % inhibition @Con 2) worked out at 10.9%. Further, the inhibition at 50 µM at HCV-NS5b (50 μM, read-out: Enzyme, % inhibition @Con 1) turned out to be 19.2%. Turning to interferon, in the data set on HCV, the response rate entry is “about 25%”. With `C[C@@]1(O)[C@H](O)[C@@H](COP(=O)(O)OP(=O)(O)OP(=O)(O)O)O[C@H]1n1cc(C=O)c2c(N)ncnc21` [Cmpd 168, 7-(2′-C-methyl-5′-triphospho-β-D-ribofuranosyl)-4-amino-5-(formyl)-pyrrolo[2,3-d]pyrimidine], the inhibition at 7.7 µM on HCV-NS5b (7.7 μM, read-out: Enzyme, % inhibition @Con 2) stood at 92%. On HCV-NS5b (23.1 μM, read-out: Enzyme, % inhibition @Con 1), the inhibition at 23.1 µM is 96%. As to `CCOC(=O)C#Cc1cn([C@@H]2O[C@H](CO)[C@@H](O)[C@@]2(C)O)c2ncnc(N)c12` [Cmpd 137, 7-(2′-C-methyl-β-D-ribofuranosyl)-4-amino-5-[(ethyl 2-carboxyl)ethyn-1-yl]-pyrrolo[2,3-d]pyrimidine], in data set [1] (Hepatitis C virus, 50 μM), the inhibition at 50 µM is 98.1%. In data set [1] (Hepatitis C virus, 100 μM), the inhibition at 100 µM is 97.6%.

Regarding `C[C@@]1(O)C(O)C(CO)OC1n1cc(/C=N/N)c2c(N)ncnc21` (stereo partly drawn) [Cmpd 169, 7-(2′-C-methyl-β-D-ribofuranosyl)-4-amino-5-(hydrazono)-pyrrolo[2,3-d]pyrimidine], the inhibition at 50 µM in data set [1] (Hepatitis C virus, 50 μM) amounted to 80.7%. The molecule further gave an inhibition at 100 µM in data set [1] (Hepatitis C virus, 100 μM) of 89.6%. For `C[C@@]1(O)C(O)C(CO)OC1n1cc(C=NO)c2c(N)ncnc21` (stereo in doubt) [Cmpd 173, 7-(2′-C-methyl-β-D-ribofuranosyl)-4-amino-5-(carbaldehyde oxime)-pyrrolo[2,3-d]pyrimidine], in that order: 76.7% and 86.9%. As to `CO/C=C\c1cn([C@@H]2O[C@H](CO)[C@@H](O)[C@@]2(C)O)c2ncnc(N)c12` [Cmpd 158, 7-(2′-C-methyl-β-D-ribofuranosyl)-4-amino-5-(2-cis-methoxy-ethen-1-yl)-pyrrolo[2,3-d]pyrimidine], the “Replicon, % inhibition @100 μM” value in data set [1] (100 μM) turned out to be 62.4%. Also, the inhibition at 100 µM in data set [1] (Hepatitis C virus, 100 μM) is 78.6%. As for `C=Cc1cn([C@@H]2O[C@H](CO)[C@@H](O)[C@@]2(C)O)c2ncnc(N)c12` [Cmpd 157, 7-(2′-C-methyl-β-D-ribofuranosyl)-4-amino-5-(ethen-1-yl)-pyrrolo[2,3-d]pyrimidine], 50 µM produced 89% inhibition in data set [1] (Hepatitis C virus, 50 μM). In addition, in data set [1] (Hepatitis C virus, 100 μM), the inhibition at 100 µM amounted to 95%. The corresponding values for `C[C@@]1(O)C(O)C(CO)OC1n1cc(C#CC(N)=O)c2c(N)ncnc21` (stereo in doubt) [Cmpd 105, 7-(2′-C-methyl-β-D-ribofuranosyl)-4-amino-5-(2-carboxamidoethyn-1-yl)-pyrrolo[2,3-d]pyrimidine] are 69.6% and 89.1%. With `NC(=O)c1ncn([C@@H]2O[C@H](CO)[C@@H](O)[C@H]2O)n1` [Ribavirin, 1-β-D-ribofuranosyl-1H-1,2,-4-triazole-3-carboxamide], the “patients with significant hemolysis” value in data set [2] is reported as 10-20%. In data set [1] (Hepatitis C virus), `C[C@@]1(O)[C@H](O)[C@@H](CO)O[C@H]1n1cc(C=O)c2c(N)ncnc21` [Cmpd 165, 7-(2′-C-methyl-β-D-ribofuranosyl)-4-amino-5-(formyl)-pyrrolo[2,3-d]pyrimidine] had an inhibition at 50 µM of 96.8% and an inhibition at 100 µM of 95.9%.

Regarding `C[C@@]1(O)[C@H](O)[C@@H](CO)O[C@H]1n1cc(C#CC(=O)O)c2c(N)ncnc21` [Cmpd 133, 7-(2′-C-methyl-β-D-ribofuranosyl)-4-amino-5-(2-carboxyethyn-1-yl)-pyrrolo[2,3-d]pyrimidine], the inhibition at 50 µM in data set [1] (Hepatitis C virus, 50 μM) was found to be 92.3%. For the same molecule, the inhibition at 100 µM in data set [1] (Hepatitis C virus, 100 μM) came out at 96.7%. In data set [1] (Hepatitis C virus), `C[C@@]1(O)[C@H](O)[C@@H](CO)O[C@H]1n1cc(C#C[Si](C)(C)C)c2c(N)ncnc21` [Cmpd 101, 7-(2′-C-methyl-β-D-ribofuranosyl)-4-amino-5-(2′-trimethylsilylethyn-1-yl)-pyrrolo[2,3-d]pyrimidine] displayed an inhibition at 50 µM of 98.1% and an inhibition at 100 µM of 98.5%. In data set [1] (Hepatitis C virus, 50 μM), `C[C@@]1(O)[C@H](O)[C@@H](CO)O[C@H]1n1cc(C#Cc2ccccc2)c2c(N)ncnc21` [Cmpd 145, 7-(2′-C-methyl-β-D-ribofuranosyl)-4-amino-5-(2-phenylethyn-1-yl)-pyrrolo[2,3-d]pyrimidine] yielded an inhibition at 50 µM of 90.7%. 100 µM produced 91.8% inhibition in data set [1] (Hepatitis C virus, 100 μM).
